The values below come from patent publication US9545385B2, “Inhibitors of hemeprotein-catalyzed lipid peroxidation” (VANDERBILT UNIVERSITY, priority 2013, dated 2017).

For data set [1], the target named is COX-1 (Homo sapiens, UniProt P23219). In words: Inhibition of COX-1-catalyzed oxidation of arachidonic acid (Example 6). In kind it is biochemical. The method, then:
(§1) The inhibition of the lipid peroxidation produced by myoglobin (Mb) and COX-1 by the different analogs was tested. Values represent the IC50 for each hemeprotein and are expressed as means±S.E.M. a: value reported from (1.). b: value reported from (3).

Data set [2] in a line: Microsomal stability. The conditions noted are these: % of unmodified compound remaining after reaction; human liver microsomes. For orientation: Liver microsomes are vesicles of endoplasmic reticulum, rich in cytochrome P450 enzymes.
Data set [3] is described as follows: Direct cellular toxicity (total cellular ATP levels). Type of data set: cell-based. Particulars: human, HepG2 cells, read-out: Cellular Toxicity (EC50, μM ± SD). From the text: Values represent means±S.E.M.
For data set [4], the target named is T1, myoglobin (Mb) (Homo sapiens, UniProt P02144).
T1 sequence (P02144 1-154): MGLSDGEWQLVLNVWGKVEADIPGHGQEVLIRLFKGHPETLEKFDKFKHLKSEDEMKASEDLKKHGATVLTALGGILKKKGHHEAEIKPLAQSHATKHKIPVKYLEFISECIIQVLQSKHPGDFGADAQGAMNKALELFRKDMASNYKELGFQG
In words: Inhibition of myoglobin-induced oxidation of arachidonic acid. Type of data set: biochemical. Particulars: among ApAP and analogs 12-14. Here is the method: as §1

For data set [5], the system named is rat model of rhabdomyolysis. In words: Rat model of rhabdomyolysis (myoglobin-catalyzed lipid peroxidation, renal failure). Type of data set: in vivo. The conditions noted are these: dose giving plasma levels in the human therapeutic range.
The target of data set [6] is T2, PGHS-2 (COX-2) (Homo sapiens, UniProt P35354).
T2 sequence (P35354 18-604): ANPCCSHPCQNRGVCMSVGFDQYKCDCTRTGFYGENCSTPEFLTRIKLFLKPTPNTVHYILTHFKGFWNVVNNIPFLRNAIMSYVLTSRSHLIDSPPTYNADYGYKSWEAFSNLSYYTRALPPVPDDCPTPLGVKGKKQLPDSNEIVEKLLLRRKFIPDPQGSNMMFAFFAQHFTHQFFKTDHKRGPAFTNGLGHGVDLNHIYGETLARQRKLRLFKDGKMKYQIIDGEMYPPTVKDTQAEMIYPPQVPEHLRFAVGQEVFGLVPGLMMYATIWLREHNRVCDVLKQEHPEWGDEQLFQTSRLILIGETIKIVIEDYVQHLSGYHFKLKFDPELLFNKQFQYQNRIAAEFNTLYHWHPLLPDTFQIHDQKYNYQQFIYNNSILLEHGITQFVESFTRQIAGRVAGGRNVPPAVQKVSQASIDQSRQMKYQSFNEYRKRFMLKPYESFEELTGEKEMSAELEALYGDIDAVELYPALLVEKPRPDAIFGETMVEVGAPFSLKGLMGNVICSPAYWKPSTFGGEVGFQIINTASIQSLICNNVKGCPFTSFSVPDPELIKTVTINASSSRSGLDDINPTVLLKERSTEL
Nature of the data set: Inhibition of hematin-reconstituted COX-2, [14C] arachidonic acid oxidation. Type of data set: biochemical. The conditions noted are these: compared with PGHS-1. Here is the method: Hematin-reconstituted COX-1 (5.4 nM) or COX-2 (10.8 nM) in Tris HCl 100 mM, pH 8.0, 500 μM phenol, was pre-incubated with N-dimethyl pyrimidinol (DM, plain line) or N-dimethyl pyridinol (DR, dashed line) at varying concentrations at 37° C. for 20 minutes. At this time the reaction was initiated by addition of 0.5 μM of [14C] arachidonic acid. After 8 seconds, the reaction was stopped by adding an ice cold mixture of diethyl ether/methanol/4.0 M citric acid. PGHS-1 activity was expressed as percent oxidation of arachidonic acid compared with control where no inhibitor was added. Each data point represents the mean±S.E.M of six values.

The nature of data set [7]: Antioxidant rate constant kinh in chemical tests, relative to α-TOH. From the text: Antioxidants, most commonly substituted phenols, effectively intercept peroxyls by transferring the phenolic H-atom to a propagating peroxyl radical, with a rate constant kinh that is faster than that of chain propagation. The most famous example of a phenolic antioxidant is vitamin E (α-toco-pherol, α-TOH) nature's hydrophobic defense against radical chain oxidation.
Compounds of the present invention have a higher kinh and serve as better antioxidants than α-TOH in chemical tests. The critical antioxidant step is shown in Equation 1, the larger the kinh, the better the antioxidant. The simple pyridinol 2a shown below is nearly 5 times better than α-TOH as an antioxidant and the bicyclic compounds 3a and 4a are over 20 times better than the vitamin. […]

For data set [8], the system named is HepG2 liver cell line. The method, then:
HepG2 were plated in multiple 96-well plates at 2×10^4 cells per well and pretreated with ethanol 100 μM for 2 hours. […] Cell viability after 24 h was determined by measuring ATP levels by luminescence assay.

The target in data set [9] is T3, ferryl myoglobin (Homo sapiens, UniProt P02144).
T3 sequence (P02144 1-154): T1 sequence (P02144 1-154)
In words: Reduction of ferryl myoglobin to ferric myoglobin. Type of data set: biochemical. Particulars: compared with acetaminophen. The method, then: Ferryl myoglobin was generated by incubating ferric myoglobin 10 μM in PBS with 10 μM hydrogen peroxide until there was no more change in the peak at 421 nm. At this time, the analogs were added to the cuvette at the final concentrations indicated and spectra were recorded every 15 sec for 2 min. The initial rate of reduction was calculated as the variation of absorbance at 409 nm in the first two minutes after adding the analogs. In this period of time the rates of reduction were linear for each concentration of analog.

Sequence of COX-1 (P23219 24-599, species assumed): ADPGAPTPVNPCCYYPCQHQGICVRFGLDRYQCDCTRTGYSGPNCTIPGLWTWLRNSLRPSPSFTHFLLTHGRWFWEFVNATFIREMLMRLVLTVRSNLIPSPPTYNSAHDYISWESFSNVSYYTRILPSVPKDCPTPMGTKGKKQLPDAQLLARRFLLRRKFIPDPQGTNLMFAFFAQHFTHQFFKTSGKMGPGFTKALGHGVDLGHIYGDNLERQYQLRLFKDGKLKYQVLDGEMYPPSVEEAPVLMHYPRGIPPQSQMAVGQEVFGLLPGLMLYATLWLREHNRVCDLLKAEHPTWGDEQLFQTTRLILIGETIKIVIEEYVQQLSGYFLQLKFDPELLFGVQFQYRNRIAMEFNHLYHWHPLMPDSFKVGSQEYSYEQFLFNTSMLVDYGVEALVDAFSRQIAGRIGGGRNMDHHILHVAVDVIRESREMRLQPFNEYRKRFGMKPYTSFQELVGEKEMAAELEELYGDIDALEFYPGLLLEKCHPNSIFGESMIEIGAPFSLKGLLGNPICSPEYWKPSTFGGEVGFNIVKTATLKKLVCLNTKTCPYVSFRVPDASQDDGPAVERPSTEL

For orientation: EC50 means the concentration needed to bring the measured effect to its halfway point. With `Cc1nc2c(c(C)c1O)COC(=O)N2` [Analog 14], the “rank in inhibiting COX-1 activity” value in data set [1] (among ApAP and analogs 12-14) was “most potent”. Also, the “Microsomal stability % left” value in data set [2] is on record as 97 ± 3%. Besides, the half-maximal effective concentration (EC50) at 24 h in [3] was greater than 5000 µM. Moreover, in [4], the “rank in inhibiting myoglobin-induced arachidonic oxidation” value was “least potent”.
Consider `O=C1NCc2cc(O)cnc2N1` [Analog 12], for which the “Microsomal stability % left” value in data set [2] turned out to be 158 ± 33%. Also, the EC50 at 24 h in [3] was 4760 ± 36 µM.
On to `CC(=O)Nc1ccc(O)cc1` [ApAP, acetaminophen], for which the EC50 at 24 h in data set [3] worked out at 594 ± 147 µM. Moreover, in [5] (listed as Acetaminophen), the “lipid peroxidation in rhabdomyolysis model” value is “blocked lipid peroxidation” and the “renal failure in rhabdomyolysis model” value is given as “prevented the renal failure”. For the same compound, in [5] (listed as acetaminophen), the “lipid peroxidation in rhabdomyolysis model” value is “blocks” and the “renal failure in rhabdomyolysis model” value is reported as “blocks”.
Consider `CN(C)c1ccc(O)cn1` [DM-Pyr, 6-(dimethylamino) pyridin-3-ol], for which the “inhibition of PGHS-2 (COX-2), in words” value in data set [6] was “only a weak inhibitor”.
Regarding `Cc1nc2c(c(C)c1O)CNC(=O)N2` [Analog 13], the “inhibition of COX-1, in words” value in data set [1] (at concentrations up to 1 mM) is reported as “not able to significantly inhibit”. The “Microsomal stability % left” value in data set [2] stood at 87 ± 7%. Also, the EC50 at 24 h in [3] turned out to be 2960 ± 284 µM.
Regarding `Cc1cc(N(C)C)nc(C)c1O` [Analog 2a], in data set [7], the “antioxidant potency, times better than α-TOH” value is roughly 5 times.
Take `CN(C)c1ncc(O)cn1` [DM-Pym, 2-(dimethylamino)pyrimidin-5-ol]: the “cytotoxicity in ethanol-induced HepG2 model” value in data set [8] is listed as “does not cause cytotoxicity”. For the same compound, the “potency in reducing ferryl myoglobin” value in data set [9] is listed as “remarkably more potent than acetaminophen”.
